Experimental data: patent US9920045B2, “Solid state forms of a PDE10 inhibitor” (Omeros Corporation, priority 2015, dated 2018)

How the values were obtained:
[1] = Drying study / ambient exposure, form followed by XRPD; format: physicochemical
Protocol: To understand a change of Form F to shifted Form F, a drying study was conducted wherein a variable hydrate having shifted Form F was dried overnight under vacuum at 50° C. […] This study confirms that Form F absorbs moisture from the atmosphere and depending upon the relative humidity of the environment either remains Form F or converts to Shifted Form F.
XRPD patterns were collected with a PANalytical CubiX-Pro XRD diffractometer using an incident beam of Cu radiation produced using an Optix long, fine-focus source. An elliptically graded multilayer mirror was used to focus CuKα X-rays (1.54 Å) through the specimen and onto the detector. Prior to the analysis, a silicon specimen (NIST SRM 640d) was analyzed to verify the observed position of the Si 111 peak is consistent with the NIST-certified position. A specimen of the sample was sandwiched between 3-μm-thick films and analyzed in transmission geometry. A beam-stop, short antiscatter extension, and antiscatter knife edge were used to minimize the background generated by air. Soller slits for the incident and diffracted beams were used to minimize broadening from axial divergence. Diffraction patterns were collected using a scanning position-sensitive detector (X'Celerator) located 240 mm from the specimen and Data Collector software v. 2.2b. The tube power was set to 45 kV and 40 mA. […]

[2] = Dynamic vapor sorption (gravimetric moisture sorption analysis); format: physicochemical; details: for hygroscopicity by moisture sorption analysis / moisture absorbed at 60% RH / moisture absorbed at 90% RH: 25° C.; for XRPD of the post moisture sorption sample: dried at 0% RH and 60° C. for 2 hours after sorption; for moisture absorbed at 60% RH / moisture absorbed at 90% RH: moisture sorption
Protocol: Gravimetric moisture sorption experiments were carried out on all materials by first holding the sample at 40% RH and 25° C. until an equilibrium weight was reached or for a maximum of four hours. The sample was then subjected to an isothermal (25° C.) adsorption scan from 40 to 90% RH in steps of 10%. The sample was allowed to equilibrate to an asymptotic weight at each point for a maximum of four hours. Following adsorption, a desorption scan from 85 to 5% RH (at 25° C.) was run in steps of −10%, again allowing a maximum of four hours for equilibration to an asymptotic weight. An adsorption scan was then performed from 0% RH to 40% RH in steps of +10% RH. The sample was then dried for no less than two hours at 60° C. and the resulting solid analyzed by XRPD.
Compound (I), Form F, was further characterized by thermal analysis (DSC and TGA), Karl Fischer titration, and DVS. […] (FIG. 5). […] (FIG. 6). The weight loss observed on TGA corresponds to the melt on DSC. […] The material absorbed 2.0 wt % moisture at 60% RH and 2.4 wt % moisture at 90% RH (FIG. 7). […] Karl Fisher analysis of the sample indicates a moisture content of 0.6 wt %, which was performed when lab humidity was around 20% RH.
Compound (I), Shifted Form F, was further characterized by thermal analysis (DSC and TGA), Karl Fischer titration, and DVS. […] (FIG. 9). […] (FIG. 10). […] The material absorbs 2.4 wt % moisture at 60% RH and 2.9 wt % moisture at 90% RH (FIG. 11). […] The water content by KF is higher than the weight loss detected by TGA. It is possible that some moisture was slowly carried away by nitrogen stream and not reflected in the weight loss attributed to the thermal event. Characterization of shifted Form F was performed when lab humidity was between 50-60% RH.

CCOC(C(=O)c1ccc(-c2cc(OC)c(Cl)c(OC)c2)o1)c1ccc(-c2nnc(C)s2)cc1 (stereo not shown) [shifted Form F, 1-(5-(4-chloro-3,5-dimethoxyphenyl)furan-2-yl)-2-ethoxy-2-(4-(5-methyl-1,3,4-thiadiazol-2-yl)phenyl)ethanone]
XRPD of the dried solid ([1]; dried overnight under vacuum at 50° C.): consistent with Form F
hygroscopicity by moisture sorption analysis [2]: moderately hygroscopic
XRPD of the post moisture sorption sample [2]: consistent with shifted Form F
moisture absorbed at 60% RH [2]: 2.4 wt %
moisture absorbed at 90% RH [2]: 2.9 wt %

CCOC(C(=O)c1ccc(-c2cc(OC)c(Cl)c(OC)c2)o1)c1ccc(-c2nnc(C)s2)cc1 (stereo not shown) [Form F, 1-(5-(4-chloro-3,5-dimethoxyphenyl)furan-2-yl)-2-ethoxy-2-(4-(5-methyl-1,3,4-thiadiazol-2-yl)phenyl)ethanone]
form after exposure to ambient conditions ([1]; dried material exposed to ambient conditions for 5 days): converted back to shifted Form F
hygroscopicity by moisture sorption analysis [2]: moderately hygroscopic
XRPD of the post moisture sorption sample [2]: consistent with Form F
moisture absorbed at 60% RH [2]: 2.0 wt %
moisture absorbed at 90% RH [2]: 2.4 wt %
